Test results published in ChEMBL document CHEMBL4651402, “Screening of ~5500 FDA-approved drugs and clinical candidates for anti-SARS-CoV-2 activity” (2021).
pIC50: −log10 of the molar value. Bridge positions count the residues as written; N and C are the ends. Square brackets hold non-standard residues; d marks the D form. Peptide text beside a SMILES is read from it. * marks the point of attachment. Ileψ(thiazoline)Cys = CC[C@H](C)[C@H](N)C1=N[C@H](C(=O)*)CS1; dOrn = NCCC[C@@H](N)C(=O)O

Tested on: SARS-CoV-2
Assay: microbe, parasite or virus in culture
Conditions: Severe acute respiratory syndrome coronavirus 2, Vero C1008, 48 h; for IC50: read-out: pIC50 (converted)

Row | Compound | pIC50 | IC50
1 | CC[C@H](C)[C@H](N)C1=N[C@H](C(=O)N[C@@H](CC(C)C)C(=O)N[C@H](CCC(=O)O)C(=O)N[C@H](C(=O)N[C@H]2CCCCNC(=O)[C@H](CC(N)=O)NC(=O)[C@@H](CC(=O)O)NC(=O)[C@H](Cc3cnc[nH]3)NC(=O)[C@@H](Cc3ccccc3)NC(=O)[C@H]([C@@H](C)CC)NC(=O)[C@@H](CCCN)NC2=O)[C@@H](C)CC)CS1 [BACITRACIN] ({Ileψ(thiazoline)Cys}-L[dE]IK[dOrn]I[dF]H[dD]N; lactam 4-C) | < 4.70 | > 20 µM
2 | NCC(CC(=O)O)c1ccc(Cl)cc1 (stereo unspecified) [BACLOFEN] | < 4.70 | > 20 µM
3 | O=C(O)[C@H]1O[C@@H](Oc2cc3oc(-c4ccccc4)cc(=O)c3c(O)c2O)[C@H](O)[C@@H](O)[C@@H]1O [BAICALIN] | < 4.70 | > 20 µM
4 | CC(C)C(=O)OC[C@@]1(N=[N+]=[N-])O[C@@H](n2ccc(N)nc2=O)[C@H](OC(=O)C(C)C)[C@@H]1OC(=O)C(C)C [BALAPIRAVIR] | < 4.70 | > 20 µM
5 | COC(=O)OCOc1c2n(ccc1=O)N([C@@H]1c3ccccc3SCc3c1ccc(F)c3F)[C@@H]1COCCN1C2=O [BALOXAVIR MARBOXIL] | < 4.70 | > 20 µM
6 | CN(C)C(=O)Oc1cc(OC(=O)N(C)C)cc(C(O)CNC(C)(C)C)c1 (stereo unspecified) [BAMBUTEROL] | < 4.70 | > 20 µM
7 | CCN(CCO)CCn1c(Cc2ccccc2)nc2c1c(=O)n(C)c(=O)n2C [BAMIFYLLINE] | < 4.70 | > 20 µM
8 | Cc1ncc([N+](=O)[O-])n1CCOC(N)=O [BAMNIDAZOLE] | < 4.70 | > 20 µM
9 | CCC1(CC)C(=O)NC(=O)NC1=O [BARBITAL] | < 4.70 | > 20 µM
10 | COC(=O)[C@]12CCC(C)(C)C[C@H]1[C@H]1C(=O)C=C3[C@@]4(C)C=C(C#N)C(=O)C(C)(C)[C@@H]4CC[C@@]3(C)[C@]1(C)CC2 [BARDOXOLONE METHYL] | < 4.70 | > 20 µM
11 | Cc1nc2ccccn2c(=O)c1CCN1CCC(Nc2nc3cccnc3n2Cc2ccco2)CC1 [BARMASTINE] | < 4.70 | > 20 µM
12 | CCN(CC)CCNC(=O)c1cc(Cl)c(N)cc1OC(C)C(C)=O (stereo unspecified) [BATANOPRIDE] | < 4.70 | > 20 µM
13 | CC(C)(C)c1ccc(OC(=O)[C@H]2CC[C@H](CNC(=N)N)CC2)cc1 [BATEBULAST] | < 4.70 | > 20 µM
14 | O=C(CCCl)NCc1ccccc1 [BECLAMIDE] | < 4.70 | > 20 µM
15 | C[C@H]1C[C@H]2[C@@H]3CCC4=CC(=O)C=C[C@]4(C)[C@@]3(Cl)[C@@H](O)C[C@]2(C)[C@@]1(O)C(=O)CO [BECLOMETHASONE] | < 4.70 | > 20 µM
16 | COc1nc2ccc(Br)cc2cc1[C@@H](c1ccccc1)[C@@](O)(CCN(C)C)c1cccc2ccccc12 [BEDAQUILINE] | < 4.70 | > 20 µM
17 | O=C(c1cc2ccccc2o1)N1CCN(Cc2ccccc2)CC1 [BEFURALINE] | < 4.70 | > 20 µM
18 | CCCCCCCCCCCCCCCCCCCCCC(=O)O [BEHENIC ACID] | < 4.70 | > 20 µM
19 | O=C(/C=C/c1cccc(S(=O)(=O)Nc2ccccc2)c1)NO [BELINOSTAT] | < 4.70 | > 20 µM
20 | CCO[C@@H]1OC(=O)C[C@@H]1NC(=O)[C@@H]1CCCN1C(=O)[C@@H](NC(=O)c1ccc(N)c(Cl)c1)C(C)(C)C [BELNACASAN] | < 4.70 | > 20 µM
21 | CC[C@@]1(O)C(=O)OCc2c1cc1n(c2=O)Cc2c-1nc1ccccc1c2CCNC(C)C [BELOTECAN] | < 4.70 | > 20 µM
22 | CC(C)NC(=O)COc1cccc(-c2nc(Nc3ccc4[nH]ncc4c3)c3ccccc3n2)c1 [BELUMOSUDIL] | < 4.70 | > 20 µM
23 | CCC1(C)CC(=O)NC(=O)C1 [BEMEGRIDE] | < 4.70 | > 20 µM

Row | Compound | pIC50 | IC50
24 | CN1[C@@H]2CC[C@H]1C[C@@H](OC(=O)c1cc(Cl)cc(Cl)c1)C2 [BEMESETRON] | < 4.70 | > 20 µM
25 | CCN(CC)CCOC(=O)C(O)(c1ccccc1)c1ccccc1 [BENACTYZINE] | < 4.70 | > 20 µM
26 | CCOC(=O)[C@H](CCc1ccccc1)N[C@H]1CCc2ccccc2N(CC(=O)O)C1=O [BENAZEPRIL] | < 4.70 | > 20 µM
27 | CN(C)CCCOC1(Cc2ccccc2)CCCCCC1 [BENCYCLANE] | < 4.70 | > 20 µM
28 | O=C(O)COc1nn(Cc2ccccc2)c2ccccc12 [BENDAZAC] | < 4.70 | > 20 µM
29 | NS(=O)(=O)c1cc2c(cc1C(F)(F)F)NC(Cc1ccccc1)NS2(=O)=O (stereo unspecified) [BENDROFLUMETHIAZIDE] | < 4.70 | > 20 µM
30 | CC(Cc1cccc(C(F)(F)F)c1)NCCOC(=O)c1ccccc1 (stereo unspecified) [BENFLUOREX] | < 4.70 | > 20 µM
31 | C/C(=C(\CCOP(=O)(O)O)SC(=O)c1ccccc1)N(C=O)Cc1cnc(C)nc1N [BENFOTIAMINE] | < 4.70 | > 20 µM
32 | CC(C(=O)O)c1ccc2oc(-c3ccc(Cl)cc3)nc2c1 (stereo unspecified) [BENOXAPROFEN] | < 4.70 | > 20 µM
33 | CCCCOc1cc(C(=O)OCCN(CC)CC)ccc1N [BENOXINATE] | < 4.70 | > 20 µM
34 | O=C(CCCN1CCC(n2c(=O)[nH]c3ccccc32)CC1)c1ccc(F)cc1 [BENPERIDOL] | < 4.70 | > 20 µM
35 | NC(CO)C(=O)NNCc1ccc(O)c(O)c1O (stereo unspecified) [BENSERAZIDE] | < 4.70 | > 20 µM
36 | O=C1CN=C(c2ccccc2)c2c(sc3c2CCCC3)N1 [BENTAZEPAM] | < 4.70 | > 20 µM
37 | N/C(=N\C(=O)c1nc(Cl)c(N)nc1N)NCc1ccccc1 [BENZAMIL] | < 4.70 | > 20 µM
38 | O=C1c2ccccc2-c2cccc3cccc1c23 [BENZANTHRONE] | < 4.70 | > 20 µM
39 | CCc1oc2ccccc2c1C(=O)c1cc(Br)c(O)c(Br)c1 [BENZBROMARONE] | < 4.70 | > 20 µM
40 | O=C1CCC(c2ccccc2)(C2CCN(Cc3ccccc3)CC2)C(=O)N1 (stereo unspecified) [BENZETIMIDE] | < 4.70 | > 20 µM
41 | CC[N+]1(CC)CCC(OC(=O)C(O)(c2ccccc2)c2ccccc2)C1 (stereo unspecified) [BENZILONIUM] | < 4.70 | > 20 µM
42 | c1ccc(Cn2cc(CCc3ccncc3)c3ccccc32)cc1 [BENZINDOPYRINE] | < 4.70 | > 20 µM
43 | CCc1oc2ccccc2c1C(=O)c1cc(I)c(O)c(I)c1 [BENZIODARONE] | < 4.70 | > 20 µM
44 | CCOC(=O)c1ccc(N)cc1 [BENZOCAINE] | < 4.70 | > 20 µM
45 | O=C(O)c1ccccc1 [BENZOIC ACID] | < 4.70 | > 20 µM
46 | O=C(c1ccccc1)C(O)c1ccccc1 (stereo unspecified) [BENZOIN] | < 4.70 | > 20 µM

Row | Compound | pIC50 | IC50
47 | CCCCNc1ccc(C(=O)OCCOCCOCCOCCOCCOCCOCCOCCOCCOC)cc1 [BENZONATATE] | < 4.70 | > 20 µM
48 | O=C(c1ccccc1)c1ccccc1 [BENZOPHENONE] | < 4.70 | > 20 µM
49 | c1ccc2sc(SSc3nc4ccccc4s3)nc2c1 [BENZOTHIAZYL DISULFIDE] | < 4.70 | > 20 µM
50 | O=C(N[C@@H](Cc1c[nH]c2ccccc12)C(=O)O)c1ccc(Cl)cc1 [BENZOTRIPT] | < 4.70 | > 20 µM
51 | O=C(Oc1cccc2cccnc12)c1ccccc1 [BENZOXIQUINE] | < 4.70 | > 20 µM
52 | O=C(OOC(=O)c1ccccc1)c1ccccc1 [BENZOYL PEROXIDE] | < 4.70 | > 20 µM
53 | O=C(Nc1ccc(C(=O)O)c(O)c1)c1ccccc1 [BENZOYLPAS] | < 4.70 | > 20 µM
54 | CCN(CC)C(=O)C1CN2CCc3cc(OC)c(OC)cc3C2CC1OC(C)=O (stereo unspecified) [BENZQUINAMIDE] | < 4.70 | > 20 µM
55 | NS(=O)(=O)c1cc2c(cc1Cl)N=C(CSCc1ccccc1)NS2(=O)=O [BENZTHIAZIDE] | < 4.70 | > 20 µM
56 | CN(C)CCCOc1nn(Cc2ccccc2)c2ccccc12 [BENZYDAMINE] | < 4.70 | > 20 µM
57 | O=C(OCc1ccccc1)c1ccccc1 [BENZYL BENZOATE] | < 4.70 | > 20 µM
58 | NNCc1ccccc1 [BENZYLHYDRAZINE] | < 4.70 | > 20 µM
59 | C[N+](C)(CCOc1ccccc1)Cc1ccccc1 [BEPHENIUM] | < 4.70 | > 20 µM
60 | CC(C)COCC(CN(Cc1ccccc1)c1ccccc1)N1CCCC1 (stereo unspecified) [BEPRIDIL] | < 4.70 | > 20 µM
61 | COc1ccc2cc3[n+](cc2c1OC)CCc1cc2c(cc1-3)OCO2 [BERBERINE] | < 4.70 | > 20 µM
62 | COc1c2ccoc2cc2oc(=O)ccc12 [BERGAPTEN] | < 4.70 | > 20 µM
63 | Cc1ccc2c(c1)CC(=O)c1cc(C(C)C(=O)O)ccc1O2 (stereo unspecified) [BERMOPROFEN] | < 4.70 | > 20 µM
64 | N[C@@H]1CCCCN(c2c(F)cc3c(=O)c(C(=O)O)cn(C4CC4)c3c2Cl)C1 [BESIFLOXACIN] | < 4.70 | > 20 µM
65 | Nc1ncc2ncn(CC3(OCP(=O)(O)O)CC3)c2n1 [BESIFOVIR] | < 4.70 | > 20 µM
66 | COc1cc2c(c(OC)c1OC)-c1c(cc3c(c1OC)OCO3)C[C@H](C)[C@@](C)(O)C2 [BESIGOMSIN] | < 4.70 | > 20 µM
67 | CC[C@H](CC[C@@H](C)[C@H]1CC[C@H]2[C@@H]3CC=C4C[C@@H](O)CC[C@]4(C)[C@H]3CC[C@]12C)C(C)C [BETA-SITOSTEROL] | < 4.70 | > 20 µM
68 | CC[C@H](OC(C)=O)C(C[C@@H](C)N(C)C)(c1ccccc1)c1ccccc1 [BETACETYLMETHADOL] | < 4.70 | > 20 µM
